Experimental data as given in patent US8741897B2, “Glucocorticoid mimetics, methods of making them, pharmaceutical compositions and uses thereof” (Boehringer Ingelheim Pharmaceuticals Inc., priority 2003, dated 2014).

Legend:
[1] = test system: glucocorticoid receptor function; assay: one or more of the above assays (GR binding and glucocorticoid receptor cell assays: aromatase, IL-6, TAT, MMTV-Luc, IL-8, ICAM-Luc); type: cell-based; conditions: assay not specified per compound
[2] = molecular target: T1, human glucocorticoid receptor (GR) complex (Homo sapiens, UniProt P04150); assay: Glucocorticoid receptor competitive binding assay (fluorescence polarization, TAMRA-labeled dexamethasone probe); conditions: compounds of Formula (IA)
T1 construct: made in house; host or cells: insect expression system (baculovirus lysate)
T1 sequence (P04150 1-777): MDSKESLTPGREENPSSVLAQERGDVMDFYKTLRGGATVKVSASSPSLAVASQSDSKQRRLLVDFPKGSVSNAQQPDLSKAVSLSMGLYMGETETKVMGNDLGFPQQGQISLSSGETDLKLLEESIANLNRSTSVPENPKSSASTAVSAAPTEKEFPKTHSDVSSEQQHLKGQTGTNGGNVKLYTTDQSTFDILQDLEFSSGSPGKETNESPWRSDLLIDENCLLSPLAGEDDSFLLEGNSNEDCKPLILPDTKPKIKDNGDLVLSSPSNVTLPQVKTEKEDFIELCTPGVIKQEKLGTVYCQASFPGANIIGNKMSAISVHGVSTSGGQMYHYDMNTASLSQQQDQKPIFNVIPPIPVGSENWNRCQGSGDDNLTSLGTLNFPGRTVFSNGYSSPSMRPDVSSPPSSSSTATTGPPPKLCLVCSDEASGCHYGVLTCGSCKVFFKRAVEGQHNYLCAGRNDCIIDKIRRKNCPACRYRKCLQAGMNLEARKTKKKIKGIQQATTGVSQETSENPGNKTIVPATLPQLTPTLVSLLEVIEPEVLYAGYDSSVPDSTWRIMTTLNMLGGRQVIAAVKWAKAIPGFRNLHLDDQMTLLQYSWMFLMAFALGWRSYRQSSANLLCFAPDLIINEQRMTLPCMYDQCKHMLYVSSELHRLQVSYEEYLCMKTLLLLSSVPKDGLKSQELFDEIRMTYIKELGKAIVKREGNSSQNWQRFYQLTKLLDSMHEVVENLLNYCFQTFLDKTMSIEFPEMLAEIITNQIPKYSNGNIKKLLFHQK
Summary of the method: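 Fluorescence-polarization competition against 15 nM TAMRA-dexamethasone (stock added to the mix) for human GR complex from baculovirus lysate diluted 1:170. Buffer: 10 mM TES, 50 mM KCl, 20 mM Na2MoO4, 1.5 mM EDTA, 0.04% CHAPS, 10% glycerol, 1 mM DTT, pH 7.4. IC50 from 4-parameter logistic fit.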

SMILES	activity in the GR binding assay [2]	activity as agonists of the glucocorticoid receptor function in one or more of the above assays [1]
COc1ccc(F)cc1C(C)(C)CC(O)(Cc1cc2cc(Cl)nc(Cl)c2[nH]1)C(F)(F)F (stereo not shown) [2-(5,7-Dichloro-1H-pyrrolo[2,3-c]pyridin-2-ylmethyl)-1,1,1-trifluoro-4-(5-fluoro-2-methoxyphenyl)-4-methylpentan-2-ol]	potent activity	potent agonists
Cc1ccc(F)cc1C(C)(C)CC(O)(Cc1cc2cnccc2s1)C(F)(F)F (stereo not shown) [1,1,1-Trifluoro-4-(5-fluoro-2-methylphenyl)-4-methyl-2-thieno[3,2-c]pyridin-2-ylmethylpentan-2-ol]	potent activity	potent agonists
Cc1ccc(C(C)(C)CC(O)(Cc2ccnc3ccccc23)C(F)(F)F)cc1F (stereo not shown) [1,1,1-Trifluoro-4-(3-fluoro-4-methylphenyl)-4-methyl-2-quinolin-4-ylmethylpentan-2-ol]	potent activity	potent agonists
Cc1ccc(F)cc1C(C)(C)CC(O)(Cc1[nH]c2cnccc2c1C)C(F)(F)F (stereo not shown) [1,1,1-Trifluoro-4-(5-fluoro-2-methylphenyl)-4-methyl-2-(3-methyl-1H-pyrrolo[2,3-c]pyridin-2-ylmethyl)pentan-2-ol]	potent activity	potent agonists
COc1cc(F)ccc1C(C)(C)CC(O)(Cc1cc2c(C)ccc(F)c2[nH]1)C(F)(F)F (stereo not shown) [1,1,1-Trifluoro-4-(4-fluoro-2-methoxyphenyl)-2-(7-fluoro-4-methyl-1H-indol-2-ylmethyl)-4-methylpentan-2-ol]	potent activity	potent agonists
COc1ccc(F)cc1C(C)(C)CC(O)(c1c(F)ccc2c(C)ccnc12)C(F)(F)F (stereo not shown) [1,1,1-Trifluoro-4-(5-fluoro-2-methoxyphenyl)-2-(7-fluoro-4-methylquinolin-8-yl)-4-methylpentan-2-ol]	potent activity	potent agonists
Cc1cc2[nH]c(CC(O)(CC(C)(C)c3cc(F)ccc3C)C(F)(F)F)cc2cn1 (stereo not shown) [1,1,1-Trifluoro-4-(5-fluoro-2-methylphenyl)-4-methyl-2-(6-methyl-1H-pyrrolo[3,2-c]pyridin-2-ylmethyl)pentan-2-ol]	potent activity	potent agonists
COc1ccc(F)cc1C(C)(C)CC(O)(Cc1cc2c(C)nccc2[nH]1)C(F)(F)F (stereo not shown) [1,1,1-Trifluoro-4-(5-fluoro-2-methoxyphenyl)-4-methyl-2-(4-methyl-1H pyrrolo[3,2-c]pyridin-2-ylmethyl)pentan-2-ol]	potent activity	potent agonists
COc1ccc(F)cc1C(C)(C)CC(O)(Cc1cc2cc(Cl)ncc2[nH]1)C(F)(F)F (stereo not shown) [1,1,1-Trifluoro-4-(5-fluoro-2-methoxyphenyl)-2-(5-chloro-1H-pyrrolo[2,3-c]pyridin-2-ylmethyl)-4-methylpentan-2-ol]	potent activity	potent agonists
COc1cc2cc(CC(O)(CC(C)(C)c3cc(F)ccc3C)C(F)(F)F)[nH]c2cn1 (stereo not shown) [1,1,1-Trifluoro-4-(5-fluoro-2-methylphenyl)-2-(5-methoxy-1H-pyrrolo[2,3-c]pyridin-2-ylmethyl)-4-methylpentan-2-ol]	potent activity	potent agonists
CSc1ccc2[nH]c(CC(O)(CC(C)(C)c3cc(F)cc4c3OCC4)C(F)(F)F)cc2c1 (stereo not shown) [1,1,1-Trifluoro-4-(5-fluoro-2,3-dihydrobenzofuran-7-yl)-4-methyl-2-(5-methylsulfanyl-1H-indol-2-ylmethyl)pentan-2-ol]	potent activity	potent agonists
COc1ccc(F)cc1C(C)(C)CC(O)(Cc1cc2c(C)nc(C)nc2[nH]1)C(F)(F)F (stereo not shown) [2-(2,4-Dimethyl-7H-pyrrolo[2,3-d]pyrimidin-6-ylmethyl)-1,1,1-trifluoro-4-(5-fluoro-2-methoxyphenyl)-4-methylpentan-2-ol]	potent activity	potent agonists

The next lines start with results.

activity in the GR binding assay [2]	SMILES	activity as agonists of the glucocorticoid receptor function in one or more of the above assays [1]
potent activity	Cc1ccc(F)c2[nH]c(CC(O)(CC(C)(C)c3ccc(F)cc3O)C(F)(F)F)cc12 (stereo not shown) [5-Fluoro-2-[4,4,4-trifluoro-3-(7-fluoro-4-methyl-1H-indol-2-ylmethyl)-3-hydroxy-1,1-dimethylbutyl]phenol]	potent agonists
potent activity	CC(C)(C)c1ccc(O)c(C(C)(C)CC(O)(Cc2[nH]c3ccccc3c2C#N)C(F)(F)F)c1 (stereo not shown) [2-[4-(5-tert-Butyl-2-hydroxyphenyl)-2-hydroxy-4-methyl-2-trifluoromethylpentyl]-1H-indole-3-carbonitrile]	potent agonists
potent activity	COc1ccc(F)cc1C(C)(C)CC(O)(Cc1cc2cc(C(=O)N3CCCC3)ccc2[nH]1)C(F)(F)F (stereo not shown) [{2-[4-(5-Fluoro-2-methoxyphenyl)-2-hydroxy-4-methyl-2-trifluoromethylpentyl]-1H-indol-5-yl}pyrrolidin-1-ylmethanone]	potent agonists
potent activity	CN(C)C(=O)c1ccc2[nH]c(CC(O)(CC(C)(C)c3cc(Br)cc4c3OCC4)C(F)(F)F)cc2c1 (stereo not shown) [2-[4-(5-Bromo-2,3-dihydrobenzofuran-7-yl)-2-hydroxy-4-methyl-2-trifluoromethylpentyl]-1H-indole-5-carboxylic acid dimethylamide]	potent agonists
potent activity	COc1ccc(F)cc1C(C)(C)CC(O)(Cc1cc2cc(NC(C)=O)ccc2[nH]1)C(F)(F)F (stereo not shown) [N-{2-[4-(5-Fluoro-2-methoxyphenyl)-2-hydroxy-4-methyl-2-trifluoromethylpentyl]-1H-indol-5-yl}acetamide]	potent agonists
potent activity	Cc1ccc(O)c(C(C)(C)CC(O)(Cc2cc3c(C)cc(C#N)cc3[nH]2)C(F)(F)F)c1 (stereo not shown) [2-[2-Hydroxy-4-(2-hydroxy-5-methylphenyl)-4-methyl-2-trifluoromethylpentyl]-4-methyl-1H-indole-6-carbonitrile]	potent agonists
potent activity	CC(C)(CC(O)(Cc1cc2nc(C#N)ccc2[nH]1)C(F)(F)F)c1cc(Cl)cc2c1OCC2 (stereo not shown) [2-[4-(5-Chloro-2,3-dihydrobenzofuran-7-yl)-2-hydroxy-4-methyl-2-trifluoromethylpentyl]-1H-pyrrolo[3,2-b]pyridine-5-carbonitrile]	potent agonists
potent activity	Cc1ccc(F)cc1C(C)(C)CC(O)(Cc1cc2nc(C#N)ccc2[nH]1)C(F)(F)F (stereo not shown) [2-[4-(5-Fluoro-2-methylphenyl)-2-hydroxy-4-methyl-2-trifluoromethylpentyl]-1H-pyrrolo[3,2-b]pyridine-5-carbonitrile]	potent agonists
potent activity	Cc1cccc(C)c1C(C)(C)CC(O)(Cc1cc2ccccc2[nH]1)C(F)(F)F (stereo not shown) [4-(2,6-Dimethylphenyl)-1,1,1-trifluoro-2-(1H-indol-2-ylmethyl)-4-methylpentan-2-ol]	potent agonists
potent activity	Cc1ccc(C)c(C(C)(C)CC(O)(Cc2cc3ccccc3[nH]2)C(F)(F)F)c1 (stereo not shown) [4-(2,5-Dimethylphenyl)-1,1,1-trifluoro-2-(1H-indol-2-ylmethyl)-4-methylpentan-2-ol]	potent agonists
potent activity	COc1ccc(F)cc1C(C)(C)CC(O)(Cc1cc2cc(C(=O)NCC#N)ccc2[nH]1)C(F)(F)F (stereo not shown) [2-[4-(5-Fluoro-2-methoxyphenyl)-2-hydroxy-4-methyl-2-trifluoromethylpentyl]-1H-indole-5-carboxylic acid cyanomethylamide]	potent agonists
